Assay: Half life in air at 10 to 20 ug by HPLC analysis
Format: physicochemical

Row | half-life | SMILES
1 | 35 h | CC[C@@H](O)/C=C/C=C\C[C@@H]1C[C@@H]1C/C=C\C=C\[C@@H](O)CCCC(=O)O
2 | 1.5 h | CC[C@@H](O)/C=C/C=C\C/C=C\C/C=C\C=C\[C@@H](O)CCCC(=O)O
3 | 35 h | CC[C@@H](O)/C=C/C=C\C[C@H]1C[C@H]1C/C=C\C=C\[C@@H](O)CCCC(=O)O

Source: ChEMBL document CHEMBL4152181, “Resolvins as proresolving inflammatory mediators in cardiovascular disease” (Eur J Med Chem, 2018)
